# Test results: ChEMBL document CHEMBL2429768, “Eco-friendly synthesis and antimicrobial activities of substituted-5-(1H-indol-3-yl)methylene)-2,2-dimethyl-1,3-dioxane-4,6-dione derivatives” (2013)
# Tests used:
# Assay type in all cases: functional
# Aspergillus niger [1] = assay: Antifungal activity against Aspergillus niger at 100 ug/ml after 72 hrs by agar well diffusion method; conditions: read-out: DIZ
# Rhizoctonia solani [2] = assay: Antifungal activity against Rhizoctonia solani at 300 ug/ml after 72 hrs by agar well diffusion method; conditions: read-out: DIZ
# Aspergillus flavus [3] = assay: Antifungal activity against Aspergillus flavus at 200 ug/ml after 72 hrs by agar well diffusion method; conditions: read-out: DIZ
# Escherichia coli [4] = assay: Antibacterial activity against Escherichia coli ATCC 8739 at 300 ug/ml after 24 hrs by agar well diffusion method; conditions: ATCC 8739, 24 h, read-out: DIZ
# Klebsiella pneumoniae [5] = assay: Antibacterial activity against Klebsiella pneumoniae at 50 ug/ml after 24 hrs by agar well diffusion method; conditions: read-out: DIZ
# Klebsiella pneumoniae [6] = assay: Antibacterial activity against Klebsiella pneumoniae at 500 ug/ml after 24 hrs by agar well diffusion method; conditions: read-out: DIZ
# Fusarium oxysporum [7] = assay: Antifungal activity against Fusarium oxysporum at 50 ug/ml after 72 hrs by agar well diffusion method; conditions: read-out: DIZ
# Staphylococcus aureus [8] = assay: Antibacterial activity against Staphylococcus aureus ATCC 6538 at 50 ug/ml after 24 hrs by agar well diffusion method; conditions: ATCC 6538, 24 h, read-out: DIZ
# Staphylococcus aureus [9] = assay: Antibacterial activity against Staphylococcus aureus ATCC 6538 at 200 ug/ml after 24 hrs by agar well diffusion method; conditions: ATCC 6538, 24 h, read-out: DIZ
# Escherichia coli [10] = assay: Antibacterial activity against Escherichia coli ATCC 8739 at 200 ug/ml after 24 hrs by agar well diffusion method; conditions: ATCC 8739, 24 h, read-out: DIZ
# Fusarium oxysporum [11] = assay: Antifungal activity against Fusarium oxysporum at 300 ug/ml after 72 hrs by agar well diffusion method; conditions: read-out: DIZ
# Staphylococcus aureus [12] = assay: Antibacterial activity against Staphylococcus aureus ATCC 6538 after 24 hrs by agar well diffusion method; conditions: ATCC 6538, 24 h
# Rhizoctonia solani [13] = assay: Antifungal activity against Rhizoctonia solani at 500 ug/ml after 72 hrs by agar well diffusion method; conditions: read-out: DIZ
# Klebsiella pneumoniae [14] = assay: Antibacterial activity against Klebsiella pneumoniae at 200 ug/ml after 24 hrs by agar well diffusion method; conditions: read-out: DIZ
# Bacillus subtilis [15] = assay: Antibacterial activity against Bacillus subtilis at 300 ug/ml after 24 hrs by agar well diffusion method; conditions: read-out: DIZ
# Escherichia coli [16] = assay: Antibacterial activity against Escherichia coli ATCC 8739 at 100 ug/ml after 24 hrs by agar well diffusion method; conditions: ATCC 8739, 24 h, read-out: DIZ
# Aspergillus flavus [17] = assay: Antifungal activity against Aspergillus flavus at 300 ug/ml after 72 hrs by agar well diffusion method; conditions: read-out: DIZ
# Klebsiella pneumoniae [18] = assay: Antibacterial activity against Klebsiella pneumoniae at 100 ug/ml after 24 hrs by agar well diffusion method; conditions: read-out: DIZ
# Aspergillus flavus [19] = assay: Antifungal activity against Aspergillus flavus at 50 ug/ml after 72 hrs by agar well diffusion method; conditions: read-out: DIZ
# Rhizoctonia solani [20] = assay: Antifungal activity against Rhizoctonia solani at 200 ug/ml after 72 hrs by agar well diffusion method; conditions: read-out: DIZ
# Bacillus subtilis [21] = assay: Antibacterial activity against Bacillus subtilis after 24 hrs by agar well diffusion method
# Aspergillus flavus [22] = assay: Antifungal activity against Aspergillus flavus at 100 ug/ml after 72 hrs by agar well diffusion method; conditions: read-out: DIZ
# Fusarium oxysporum [23] = assay: Antifungal activity against Fusarium oxysporum after 72 hrs by agar well diffusion method
# Klebsiella pneumoniae [24] = assay: Antibacterial activity against Klebsiella pneumoniae after 24 hrs by agar well diffusion method
# Fusarium oxysporum [25] = assay: Antifungal activity against Fusarium oxysporum at 200 ug/ml after 72 hrs by agar well diffusion method; conditions: read-out: DIZ
# Escherichia coli [26] = assay: Antibacterial activity against Escherichia coli ATCC 8739 after 24 hrs by agar well diffusion method; conditions: ATCC 8739, 24 h
# Aspergillus niger [27] = assay: Antifungal activity against Aspergillus niger at 500 ug/ml after 72 hrs by agar well diffusion method; conditions: read-out: DIZ
# Escherichia coli [28] = assay: Antibacterial activity against Escherichia coli ATCC 8739 at 50 ug/ml after 24 hrs by agar well diffusion method; conditions: ATCC 8739, 24 h, read-out: DIZ
# Bacillus subtilis [29] = assay: Antibacterial activity against Bacillus subtilis at 500 ug/ml after 24 hrs by agar well diffusion method; conditions: read-out: DIZ
# Rhizoctonia solani [30] = assay: Antifungal activity against Rhizoctonia solani after 72 hrs by agar well diffusion method
# Aspergillus niger [31] = assay: Antifungal activity against Aspergillus niger at 300 ug/ml after 72 hrs by agar well diffusion method; conditions: read-out: DIZ
# Fusarium oxysporum [32] = assay: Antifungal activity against Fusarium oxysporum at 500 ug/ml after 72 hrs by agar well diffusion method; conditions: read-out: DIZ
# Fusarium oxysporum [33] = assay: Antifungal activity against Fusarium oxysporum at 100 ug/ml after 72 hrs by agar well diffusion method; conditions: read-out: DIZ
# Aspergillus niger [34] = assay: Antifungal activity against Aspergillus niger at 50 ug/ml after 72 hrs by agar well diffusion method; conditions: read-out: DIZ
# Aspergillus niger [35] = assay: Antifungal activity against Aspergillus niger after 72 hrs by agar well diffusion method
# Rhizoctonia solani [36] = assay: Antifungal activity against Rhizoctonia solani at 100 ug/ml after 72 hrs by agar well diffusion method; conditions: read-out: DIZ
# Bacillus subtilis [37] = assay: Antibacterial activity against Bacillus subtilis at 200 ug/ml after 24 hrs by agar well diffusion method; conditions: read-out: DIZ
# Staphylococcus aureus [38] = assay: Antibacterial activity against Staphylococcus aureus ATCC 6538 at 100 ug/ml after 24 hrs by agar well diffusion method; conditions: ATCC 6538, 24 h, read-out: DIZ
# Bacillus subtilis [39] = assay: Antibacterial activity against Bacillus subtilis at 100 ug/ml after 24 hrs by agar well diffusion method; conditions: read-out: DIZ
# Rhizoctonia solani [40] = assay: Antifungal activity against Rhizoctonia solani at 50 ug/ml after 72 hrs by agar well diffusion method; conditions: read-out: DIZ
# Aspergillus niger [41] = assay: Antifungal activity against Aspergillus niger at 200 ug/ml after 72 hrs by agar well diffusion method; conditions: read-out: DIZ
# Staphylococcus aureus [42] = assay: Antibacterial activity against Staphylococcus aureus ATCC 6538 at 300 ug/ml after 24 hrs by agar well diffusion method; conditions: ATCC 6538, 24 h, read-out: DIZ
# Klebsiella pneumoniae [43] = assay: Antibacterial activity against Klebsiella pneumoniae at 300 ug/ml after 24 hrs by agar well diffusion method; conditions: read-out: DIZ
# Escherichia coli [44] = assay: Antibacterial activity against Escherichia coli ATCC 8739 at 500 ug/ml after 24 hrs by agar well diffusion method; conditions: ATCC 8739, 24 h, read-out: DIZ
# Bacillus subtilis [45] = assay: Antibacterial activity against Bacillus subtilis at 50 ug/ml after 24 hrs by agar well diffusion method; conditions: read-out: DIZ
# Aspergillus flavus [46] = assay: Antifungal activity against Aspergillus flavus at 500 ug/ml after 72 hrs by agar well diffusion method; conditions: read-out: DIZ
# Aspergillus flavus [47] = assay: Antifungal activity against Aspergillus flavus after 72 hrs by agar well diffusion method
# Staphylococcus aureus [48] = assay: Antibacterial activity against Staphylococcus aureus ATCC 6538 at 500 ug/ml after 24 hrs by agar well diffusion method; conditions: ATCC 6538, 24 h, read-out: DIZ
smiles,measurement,setting,value
CCn1cc(C=C2C(=O)OC(C)(C)OC2=O)c2cc(Br)ccc21,zone of inhibition at 100 µg/mL,Aspergillus niger [1],10 mm
same,zone of inhibition at 300 µg/mL,Rhizoctonia solani [2],21 mm
same,zone of inhibition at 200 µg/mL,Aspergillus flavus [3],12 mm
same,zone of inhibition at 300 µg/mL,Escherichia coli [4],17 mm
same,zone of inhibition at 50 µg/mL,Klebsiella pneumoniae [5],8.4 mm
same,zone of inhibition at 500 µg/mL,Klebsiella pneumoniae [6],30 mm
same,zone of inhibition at 50 µg/mL,Fusarium oxysporum [7],7 mm
same,zone of inhibition at 50 µg/mL,Staphylococcus aureus [8],5 mm
same,zone of inhibition at 200 µg/mL,Staphylococcus aureus [9],11 mm
same,zone of inhibition at 200 µg/mL,Escherichia coli [10],13 mm
same,zone of inhibition at 300 µg/mL,Fusarium oxysporum [11],21 mm
same,MIC,Staphylococcus aureus [12],25 µg/mL
same,zone of inhibition at 500 µg/mL,Rhizoctonia solani [13],29 mm
same,zone of inhibition at 200 µg/mL,Klebsiella pneumoniae [14],14 mm
same,zone of inhibition at 300 µg/mL,Bacillus subtilis [15],15 mm
same,zone of inhibition at 100 µg/mL,Escherichia coli [16],10 mm
same,zone of inhibition at 300 µg/mL,Aspergillus flavus [17],15 mm
same,zone of inhibition at 100 µg/mL,Klebsiella pneumoniae [18],13.4 mm
same,zone of inhibition at 50 µg/mL,Aspergillus flavus [19],4 mm
same,zone of inhibition at 200 µg/mL,Rhizoctonia solani [20],16 mm
same,MIC,Bacillus subtilis [21],30 µg/mL
same,zone of inhibition at 100 µg/mL,Aspergillus flavus [22],9 mm
same,MIC,Fusarium oxysporum [23],35 µg/mL
same,MIC,Klebsiella pneumoniae [24],15 µg/mL
same,zone of inhibition at 200 µg/mL,Fusarium oxysporum [25],16 mm
same,MIC,Escherichia coli [26],15 µg/mL
same,zone of inhibition at 500 µg/mL,Aspergillus niger [27],25 mm
same,zone of inhibition at 50 µg/mL,Escherichia coli [28],6 mm
same,zone of inhibition at 500 µg/mL,Bacillus subtilis [29],23 mm
same,MIC,Rhizoctonia solani [30],35 µg/mL
same,zone of inhibition at 300 µg/mL,Aspergillus niger [31],18 mm
same,zone of inhibition at 500 µg/mL,Fusarium oxysporum [32],29 mm
same,zone of inhibition at 100 µg/mL,Fusarium oxysporum [33],12 mm
same,zone of inhibition at 50 µg/mL,Aspergillus niger [34],6 mm
same,MIC,Aspergillus niger [35],40 µg/mL
same,zone of inhibition at 100 µg/mL,Rhizoctonia solani [36],12 mm
same,zone of inhibition at 200 µg/mL,Bacillus subtilis [37],11 mm
same,zone of inhibition at 100 µg/mL,Staphylococcus aureus [38],9.5 mm
same,zone of inhibition at 100 µg/mL,Bacillus subtilis [39],9.5 mm
same,zone of inhibition at 50 µg/mL,Rhizoctonia solani [40],7 mm
same,zone of inhibition at 200 µg/mL,Aspergillus niger [41],14 mm
same,zone of inhibition at 300 µg/mL,Staphylococcus aureus [42],15 mm
same,zone of inhibition at 300 µg/mL,Klebsiella pneumoniae [43],21 mm
same,zone of inhibition at 500 µg/mL,Escherichia coli [44],25 mm
same,zone of inhibition at 50 µg/mL,Bacillus subtilis [45],5 mm
same,zone of inhibition at 500 µg/mL,Aspergillus flavus [46],23 mm
same,MIC,Aspergillus flavus [47],40 µg/mL
same,zone of inhibition at 500 µg/mL,Staphylococcus aureus [48],23 mm
